Counter-ions that a name gives are not always drawn.
What was measured:
rNanA [1] = target: T1, rNanA (Streptococcus pneumoniae, UniProt P62575); experiment: FL assay (MUNANA), inhibition of rNanA; assay type: biochemical, Streptococcus pneumoniae DSM20566
T1 construct: made in house; host or cells: E. coli
Description: (§1) Activity of 10-fold dilutions (1:1,000 to 1:100,000) of rNanA and rNanB was determined with a fluorescence-based NA assay (FL assay) using the substrate 2-(4-methylumbelliferyl)-α-D-N-acetylneuraminic acid sodium salt hydrate (MUNANA, Sigma–Aldrich GmbH) as published ([Richter et al., 2015]). The activity of rNanB was additionally tested at pH 5. Relative FL units (RFU) were read using the microplate reader FLUOstar Omega (BMG Labtech GmbH, Ortenberg, Germany) and converted to 4-MU concentration (Sigma–Aldrich GmbH) according to the 4-MU standard curve (Supplementary Figure 1). Velocity (μM/min) and Km value (μM) for rNanA and rNanB were determined using eight MUNANA concentrations (3.13 to 400 μM) at pH 6.5. After 5 min the reaction was stopped, RFU were measured and converted to 4-MU concentrations according to the 4-MU standard curve. The Enzyme Kinetics Module of SigmaPlot 12.0 (Systat Software, San Jose, CA, USA) was applied to fit the data to the Michaelis–Menten equation using non-linear regression.
(§2) The NAI susceptibility of rNanA and rNanB was evaluated with FL assay (rNanA and rNanB diluted 1:10,000 in FL buffer; pH 6.5) and HA assay as published recently ([Richter et al., 2015]) with slight modification of the HA assay. For stability reasons, rNanA and rNanB were diluted 1:5,000 in phosphate buffered saline (PBS) containing 100 μg/mL bovine serum albumin and stored at –20°C until use. The incubation period of the recombinant proteins with the human erythrocytes was only 1 h. At least three individual experiments were performed.

rNanB [2] = target: T2, rNanB (Streptococcus pneumoniae serotype 4, UniProt Q54727); experiment: HA assay (hemagglutination of NA-treated human erythrocytes with peanut lectin), inhibition of rNanB; assay type: biochemical, Streptococcus pneumoniae DSM20566; conditions: 1 h incubation
T2 construct: encodes a C-terminal 6xHis-tagged NanB in size of 699 amino acid residues; 6xHis (C); made in house; host or cells: E. coli (vector pET-28a, plasmid pTNB20566)
T2 sequence (Q54727 30-697): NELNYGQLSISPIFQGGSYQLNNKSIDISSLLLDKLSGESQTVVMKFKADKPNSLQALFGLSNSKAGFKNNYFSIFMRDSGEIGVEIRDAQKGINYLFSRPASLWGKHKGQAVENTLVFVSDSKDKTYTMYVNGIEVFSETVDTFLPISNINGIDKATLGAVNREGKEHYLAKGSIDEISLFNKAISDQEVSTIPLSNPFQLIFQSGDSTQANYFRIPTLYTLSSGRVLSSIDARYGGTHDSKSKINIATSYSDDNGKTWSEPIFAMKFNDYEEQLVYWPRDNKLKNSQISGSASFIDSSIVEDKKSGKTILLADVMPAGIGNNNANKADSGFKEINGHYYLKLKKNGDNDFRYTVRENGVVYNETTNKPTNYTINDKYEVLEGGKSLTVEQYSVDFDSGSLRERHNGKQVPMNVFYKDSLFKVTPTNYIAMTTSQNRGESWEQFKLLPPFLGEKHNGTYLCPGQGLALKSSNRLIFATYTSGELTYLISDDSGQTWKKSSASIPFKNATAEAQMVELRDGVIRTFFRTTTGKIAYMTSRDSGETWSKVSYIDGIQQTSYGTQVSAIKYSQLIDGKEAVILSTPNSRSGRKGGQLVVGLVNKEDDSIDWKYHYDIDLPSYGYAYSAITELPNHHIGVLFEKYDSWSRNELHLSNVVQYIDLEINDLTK
Description: as §2

rNanB [3] = target: T2, rNanB; experiment: FL assay (MUNANA), inhibition of rNanB; assay type: biochemical, Streptococcus pneumoniae DSM20566; conditions: for Inhibitory Concentration of NAIs against rNanB, FL assay: rNanB diluted 1:10,000, pH 6.5, MUNANA substrate
Description: as §1, §2

rNanA [4] = target: T1, rNanA; experiment: HA assay (hemagglutination of NA-treated human erythrocytes with peanut lectin), inhibition of rNanA; assay type: biochemical, Streptococcus pneumoniae DSM20566; conditions: 1 h incubation
Description: Neuraminidase activity of both NAs was further confirmed based on hemagglutination of NA-treated human erythrocytes in the presence of peanut lectin (HA assay) as described recently ([Richter et al., 2015]; [Walther et al., 2015]).
as §2

[5] = tested on: A(H1N1)pdm09 influenza virus A/Jena/8178/09; experiment: Inhibition of Jena/8178 replication (yield, spread) by NAI in A549 cells in presence of rNanB; assay type: cell-based; conditions: 48 h after infection, rNanB 1:10,000, untreated control = 100%
Description: (§3) Confluent MDCK and A549 cells were mock-infected with test medium or infected with Jena/8178 (0.1 TCID50/cell) for 1 h (37°C; 5% CO2). After three washing steps with test medium, test medium or various rNanA or rNanB dilutions (1:100 to 1:1,000,000) were added. After 48 h at 37°C the supernatant was taken and stored at –20°C until plaque titer determination (virus yield analysis). The remaining cells were fixed with ice-cold methanol for 20 min and stored after washing with PBS in PBS at 4°C until immunocytochemical staining (virus spread analysis).
(§4) To determine the virus yield in collected supernatants, plaque assays were conducted on confluent MDCK cells grown in 12-well tissue culture plates (Greiner Bio-One GmbH). Briefly, after virus adsorption (37°C; 1 h), inoculum was replaced by 1 mL test medium containing also 0.4% agarose and 50 mM magnesium chloride (VEB Laborchemikalien, Apolda, Germany). After 48 h of incubation at 37°C, cells were fixed and stained with a solution of 0.4% crystal violet in a mixture of formalin (3% v/v) and ethanol (1.67% v/v) in water overnight. Plaques were counted over a light box after removal of the agar overlay.
(§5) Virus spread was analyzed by detecting viral nucleoprotein with a monoclonal antibody (Acris GmbH, Hiddenhausen, Germany) by immunocytochemical staining according to the manufacturers protocol (DAKO, Hamburg, Germany; [Bauer et al., 2007]).
(§6) The inhibitory effect of the NAI on Jena/8178 (inhibition of virus yield and spread) was determined in absence and presence of rNanA or rNanB in A549 cells.
(§7) ^a The plaque titer of untreated control (influenzavirus A/Jena/8178/09) reached in A549 cells (48 h after infection) in the absence and presence of rNanA or rNanB was set as 100% virus yield. It was used to calculate the percentage of virus yield after NAI treatment. Mean and standard deviations were calculated of at least three assays with two replicates.

[6] = tested on: A(H1N1)pdm09 influenza virus A/Jena/8178/09; experiment: Inhibition of Jena/8178 replication (yield, spread) by NAI in A549 cells in presence of rNanA; assay type: cell-based; conditions: for spread and yield of the virus in the presence of NanA: oseltamivir at 1 μM; for Percentage of Virus Yield after NAI Treatment, with rNanA: 48 h after infection, rNanA 1:10,000, untreated control = 100%
Description: as §3, §4, §5, §6, §7

[7] = tested on: A(H1N1)pdm09 influenza virus A/Jena/8178/09; experiment: Inhibition of Jena/8178 replication (yield, spread) by NAI in A549 cells, without pneumococcal NA; assay type: cell-based; conditions: 48 h after infection, untreated control = 100%
Description: as §3, §4, §5, §6, §7

[8] = target: Influenza Virus A/Jena/8178/09 Neuraminidase (Influenza A virus (A/Jena/8178/2009(H1N1)), UniProt A0A088CA11); experiment: FL assay, inhibition of viral neuraminidase; assay type: biochemical; conditions: A/Jena/8178/09 NA; maximum tested concentration 100 μM; read-out: Inhibitory Concentration of NAIs, FL Assay (mean IC50)
rNanB [9] = tested on: T3, rNanB; experiment: Fluorescence-based NA assay with eight MUNANA concentrations (3.13 to 400 uM) at pH 6.5, enzymes diluted 1:10,000, stopped after 5 min, 4-MU release fitted to the Michaelis-Menten equation by non-linear regression.; assay type: biochemical; conditions: n = 3
T3 construct: recombinant, expressed in E. coli from pET-28a (pTNB20566); C-terminal 6xHis tag; 699 amino acid residues
Description: as §1
(§8) Both rNanA and rNanB were expressed in E. coli and their activity was confirmed by the FL assay at pH 5 (for rNanB only) and pH 6.5 (for both rNanA and rNanB). […] Activities of both recombinant S. pneumoniae NAs were further confirmed under more physiological conditions in a hemagglutination assay (HA assay; [Richter et al., 2015]). […]

[10] = tested on: CC(=O)N[C@H]1[C@H]([C@H](O)[C@H](O)CO)O[C@@](Oc2ccc3c(C)cc(=O)oc3c2)(C(=O)O)C[C@@H]1O; experiment: as above; assay type: biochemical
Description: as §1, §8

T1 sequence (P62575 54-1035): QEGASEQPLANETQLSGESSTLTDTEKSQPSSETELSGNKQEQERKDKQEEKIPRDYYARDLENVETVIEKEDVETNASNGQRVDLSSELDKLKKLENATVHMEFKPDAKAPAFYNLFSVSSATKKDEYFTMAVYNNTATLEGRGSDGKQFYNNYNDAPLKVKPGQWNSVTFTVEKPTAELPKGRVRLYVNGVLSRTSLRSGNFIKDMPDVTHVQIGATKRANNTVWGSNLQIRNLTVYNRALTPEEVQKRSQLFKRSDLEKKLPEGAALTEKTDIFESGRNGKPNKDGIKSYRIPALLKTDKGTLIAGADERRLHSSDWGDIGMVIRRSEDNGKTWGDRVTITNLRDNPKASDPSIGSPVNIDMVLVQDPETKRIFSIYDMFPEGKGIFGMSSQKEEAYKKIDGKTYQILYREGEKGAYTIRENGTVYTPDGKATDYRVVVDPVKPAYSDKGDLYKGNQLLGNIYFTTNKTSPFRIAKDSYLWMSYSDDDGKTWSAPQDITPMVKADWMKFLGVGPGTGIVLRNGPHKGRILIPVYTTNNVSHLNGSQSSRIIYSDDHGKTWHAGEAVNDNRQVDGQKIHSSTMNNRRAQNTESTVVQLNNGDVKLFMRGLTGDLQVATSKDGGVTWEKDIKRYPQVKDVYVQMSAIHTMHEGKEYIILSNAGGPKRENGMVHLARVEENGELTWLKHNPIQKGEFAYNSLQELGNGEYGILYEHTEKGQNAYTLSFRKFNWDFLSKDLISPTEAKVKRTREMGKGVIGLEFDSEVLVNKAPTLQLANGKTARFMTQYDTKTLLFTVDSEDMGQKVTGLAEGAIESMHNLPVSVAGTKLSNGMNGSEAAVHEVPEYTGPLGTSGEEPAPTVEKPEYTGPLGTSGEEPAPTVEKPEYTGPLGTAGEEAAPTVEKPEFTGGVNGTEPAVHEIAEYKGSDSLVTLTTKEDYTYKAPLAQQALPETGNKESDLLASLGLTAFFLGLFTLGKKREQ

Row | Compound | IC50 (rNanA [1]) [µM] | Inhibitory Concentration of NAIs against rNanB, HA assay (rNanB [2]) | Inhibitory Concentration of NAIs against rNanB, FL assay (rNanB [3]) | Inhibitory Concentration of NAIs against rNanA, HA assay (rNanA [4]) | Percentage of Virus Yield after NAI Treatment, with rNanB ([5]; NAI 20 µM) [%] | spread and yield of the virus in the presence of NanA ([6]; 48 h) | Percentage of Virus Yield after NAI Treatment, with rNanA ([6]; NAI 10 µM) [%] | Percentage of Virus Yield after NAI Treatment, with rNanA ([6]; NAI 20 µM) [%] | Percentage of Virus Yield after NAI Treatment, without NA ([7]; NAI 10 µM) [%] | Percentage of Virus Yield after NAI Treatment, without NA ([7]; NAI 20 µM) [%] | also measured
1 | COc1cc2oc(-c3ccc(O)cc3O)c(CC=C(C)C)c(=O)c2c(O)c1/C=C/C(C)C [Artocarpin] | 10 ± 6.3 | 10.0 ± 0.0 µM | Not active | 10.0 ± 0.0 µM | 77.1 ± 37.8 | inhibited | 67.3 ± 25.5 | 44.3 ± 11.0 | 70.2 ± 10.5 | 84.8 ± 15.7 | –
2 | CC(=O)N[C@H]1[C@H]([C@H](O)[C@H](O)CO)OC(C(=O)O)=C[C@@H]1O [DANA, N-acetyl-2,3-dehydro-2-deoxyneuraminic acid] | – | – | – | 100.0 ± 0.0 µM | – | inhibited | 81.1 ± 27.9 | – | 78.9 ± 36.1 | – | Percentage of Virus Yield after NAI Treatment, with rNanB ([5]; NAI 50 µM): 27.4 ± 1.0%; Percentage of Virus Yield after NAI Treatment, with rNanA ([6]; NAI 50 µM): 13.5 ± 8.3%; Percentage of Virus Yield after NAI Treatment, without NA ([7]; NAI 50 µM): 34.8 ± 17.4%; IC50 [8]: 3.6 ± 0.4 µM
3 | O=C(CCc1ccccc1)C[C@@H]1C[C@@H](c2ccccc2)c2c(cc(/C=C/c3ccccc3)oc2=O)O1 [Katsumadain A, katsumadain A] | – | 5.4 ± 4.0 µM | – | 3.2 ± 0.0 µM | 21.0 ± 4.1 | inhibited | 67.3 ± 6.2 | 28.1 ± 13.7 | 54.9 ± 25.7 | 29.0 ± 15.1 | –
4 | CC(=O)N[C@H]1[C@H]([C@H](O)[C@H](O)CO)O[C@@](Oc2ccc3c(C)cc(=O)oc3c2)(C(=O)O)C[C@@H]1O [MUNANA, 2-(4-methylumbelliferyl)-α-D-N-acetylneuraminic acid sodium salt hydrate] | – | – | – | – | – | – | – | – | – | – | Km (rNanB [9]): 684 µM
5 | CC(=O)N[C@H]1[C@H]([C@H](O)[C@H](O)CO)OC(C(=O)O)=C[C@@H]1N=C(N)N [Zanamivir, zanamivir] | > 100 | Not active | Not active | Not active | – | – | – | – | – | – | Inhibitory Concentration of NAIs against rNanA, FL assay (rNanA [1]; rNanA diluted 1:10,000, pH 6.5, MUNANA substrate): Not active; IC50 (rNanB [3]): > 100 µM; Percentage of Virus Yield after NAI Treatment, with rNanB ([5]; NAI 0.1 µM): 6.2 ± 2.9%; Percentage of Virus Yield after NAI Treatment, with rNanB ([5]; NAI 1 µM): 0.7 ± 0.3%; antiviral effect in the presence of rNanA ([6]; 48 h, spread and yield): abolished; Percentage of Virus Yield after NAI Treatment, with rNanA ([6]; NAI 0.1 µM): 109.0 ± 35.5%; Percentage of Virus Yield after NAI Treatment, with rNanA ([6]; NAI 1 µM): 86.5 ± 46.2%; Percentage of Virus Yield after NAI Treatment, without NA ([7]; NAI 0.1 µM): 4.4 ± 1.5%; Percentage of Virus Yield after NAI Treatment, without NA ([7]; NAI 1 µM): 1.4 ± 1.0%
6 | rNanA (Streptococcus pneumoniae R6) | – | – | – | – | – | – | – | – | – | – | Km [10]: 39.70 µM

Reference: paper PMC4800182 (Frontiers in Microbiology, 2016)
